The values that follow come from patent US20240390396A1 (priority 2021, published 2024).

In one data set the test system is MCF7 cells. It counts as cell-based. The following applies: 24 h; cannabis containing 4 μM CBD; 32 μM capsazepine; 400 μM capsaicin; 5 μM thapsigargin; alone or combined.
For the next data set, the system named is T47D cells. In kind it is cell-based. The settings on record: 24 h; cannabis containing 4 μM CBD; 32 μM capsazepine; 400 μM capsaicin; 5 μM thapsigargin; alone or combined.
In a further data set the test system is MDA-MB-231 cells. The following applies: 24 h.
The next data set concerns MDA-MB-468 cells. In kind it is cell-based. The settings on record: 24 h; 1:2 dilution of the original doses: cannabis containing 2 μM CBD; 16 μM capsazepine; capsaicin and thapsigargin diluted 1:2 from 400 μM and 5 μM; alone or combined.
In a further data set the test system is RAW 264.7 macrophages. Nature of the data set: Nitric oxide (NO) secretion by LPS-activated macrophages (Griess reagent). The settings on record: for effect of ECS receptor antagonists alone on NO secretion: 24 h (FIG. 5B). It counts as cell-based. As to the method: NO secretion was determined by measuring the amount of nitrite, using a Griess reagent (Promega) according to manufacturer's protocol. Briefly, 50 μl of supernatant was added to 96-well plate, followed by 50 μl sulphanilamide and 50 μl N−1-napthylethylenediamine dihydrochloride (NED). The optical densities were quantified using a multi-well spectrophotometer, and nitrite concentrations were estimated using a standard nitrite curve. Results were calculated as the percentage of control cultures.
The poor bioavailability of CBD may hamper its effectiveness as an anti-inflammatory drug. To test whether antagonists of the ECS may potentiate the anti-inflammatory effect of CBD, the inventors used the RAW 264.7 macrophages as a model system for inflammation. Exposure of cells to bacterial lipopolysaccharide (LPS) initiates a signal transduction cascade that leads to increased production of nitrite oxide (NO), secretion of pro-inflammatory cytokines, and acquisition of enhanced bactericidal activity.
First, the inventors studied the response of LPS-activated RAW 264.7 cells to CBD. Cells were cultured with LPS, with/without CBD at 0.63-5 μM concentrations for 24 hrs. Supernatants were harvested for measuring NO by spectrophotometry using the Greiss reagent. […] To test whether antagonists of the ECS can modify the anti-inflammatory activity of CBD, the inventors further exposed the cells to LPS, CBD, ECS antagonists (detailed in Table 2), and their combinations. Two distinct CB2 antagonists (AM630 and COR170) were tested, as CB2 is known to be involved in the regulation of inflammation.
For orientation: Nitrite, measured by Griess reagent, commonly stands in for NO production.

The mark [1] stands for this setting: cannabis containing 4 μM CBD, 400 μM capsaicin, 5 μM thapsigargin, alone or combined.

Where “and” joins values, the source holds several entries; their conditions need not be identical. Equal values may be shown once. Read-outs that look alike come from different tables or passages of the source.

Regarding `C/C=C(/C)C(=O)O[C@H]1C(C)=C2[C@H]([C@@H]1OC(=O)CCCCCCC)[C@@](C)(OC(C)=O)C[C@H](OC(=O)CCC)[C@@]1(O)[C@H]2OC(=O)[C@@]1(C)O` [thapsigargin], the results for the cell survival in the data set with MCF7 cells, in the data set on T47D cells and in the data set on MDA-MB-231 cells (setting [1]) were 24±6%, 72±7% and 34±23%, respectively.
Turning to `Oc1cc2c(cc1O)CN(C(=S)NCCc1ccc(Cl)cc1)CCC2` [capsazepine], the figures for the cell survival in the data set with MCF7 cells, in the data set with T47D cells and with MDA-MB-468 cells were 40±7%, 37±21% and 80±9%, respectively. Also, the “effect of ECS receptor antagonists alone on NO secretion” value with RAW 264.7 macrophages is reported as “mild effect on NO secretion”. In addition, the “effect of ECS receptor antagonist on cytotoxic activity of cannabis” value in the data set on MDA-MB-231 cells (co-treatment with CBD-enriched cannabis (FIG. 1B)) is on record as “enhanced the cytotoxic effect of cannabis”.
As for `COc1cc(CNC(=O)CCCC/C=C/C(C)C)ccc1O` [capsaicin], the cell survival in the data set on MCF7 cells was 19±9%; in the data set with T47D cells it was 39±11%; in the data set with MDA-MB-468 cells, 60±11% and 62±9%; in the data set on MDA-MB-231 cells (setting [1]), 34±25%.
Consider `CCC(=O)NC[C@H](Cc1ccc(OCCc2nc(-c3ccccc3)oc2C)cc1)N/C(C)=C\C(=O)c1ccc(C(F)(F)F)cc1` [GW6471], for which the “effect of ECS receptor antagonists alone on NO secretion” value in the data set with RAW 264.7 macrophages was “mild effect on NO secretion”.
Regarding `C=C(C)[C@@H]1CCC(C)=C[C@H]1c1c(O)cc(CCCCC)cc1O` [CBD, cannabidiol], the “NO secretion, dose response” value with RAW 264.7 macrophages (24 h, CBD 0.63-5 μM (FIG. 5A)) is reported as “reduced NO secretion in a dose dependent manner”. In addition, the activity at 2.5 µM in the data set with RAW 264.7 macrophages (Mus musculus, RAW264.7, 24 h, 2.5 μM CBD, with or without 10 μM capsazepine, read-out: NO secretion, % of control cells treated with vehicle (DMSO)) worked out at 6 ± 5%. The same molecule had a cell survival with MDA-MB-231 cells (2.5 μM pure CBD, with or without 32 μM capsazepine (FIG. 1D)) of 72±13%.
